Activity calls are given as the source filed them. No cut-off for these calls is given here.

Data set [1] has as its system SARS-CoV-2. In words: Antiviral activity against SARS-CoV-2 infected in HEK293T cells expressing ACE2/TMPRSS2 assessed as reduction in virus-induced cytopathic effect at 5 to 10 uM measured after 48 hrs by cellular ATP assay. The conditions noted are these: Severe acute respiratory syndrome coronavirus 2, dose 5-10 µM. The format is functional, organism-based. Background: Damage to the host cells serves as the signal in cytopathic effect assays.

For data set [2], the system named is SARS-CoV-2. Kind of data set: Antiviral activity against SARS-CoV-2 infected in HEK293T cells expressing ACE2/TMPRSS2 assessed as reduction in virus-induced cytopathic effect measured after 48 hrs by cellular ATP assay. Format: functional, organism-based. The following applies: Severe acute respiratory syndrome coronavirus 2, HEK-293T.
Data set [3] is described as follows: Induction of phospholipidosis in HEK293T cells expressing ACE-2/TMPRSS2 at 1 uM measured after 24 hrs by DAPI staining based fluorescence microscopic analysis. Format: toxicity, cell-based. The conditions noted are these: human, hek-293t.
Data set [4] is described as follows: Cytotoxicity against HEK293T cells assessed as reduction in cell viability by CellTiter-Glo assay. The format is toxicity, cell-based, HEK-293T. The conditions noted are these: human. On the technique in general: ATP-based viability assays read luminescence as a measure of living cells.
Data set [5] in a line: Induction of phospholipidosis in African green monkey Vero E6 cells expressing ACE-2/TMPRSS2 at 100 to 300 nM measured after 24 hrs by DAPI staining based fluorescence microscopic analysis. The conditions noted are these: chlorocebus sabaeus, vero c1008, 24 h, 0.3 µM, dose 100-300 nM. Format: toxicity, cell-based.
For data set [6], the system named is HEK-293T. In words: Downregulation of ORF1ab gene expression in HEK293T cells expressing ACE-2/TMPRSS2 infected with SARS-CoV-2 assessed as fold change preincubated with compound for 2 hrs followed by viral infection and measured after 24 hrs relative to MPV. Format: functional, cell-based. The conditions noted are these: Homo sapiens, time 26.0 hrs.
The nature of data set [7]: Induction of phospholipidosis in HEK293T cells expressing ACE-2/TMPRSS2 at 100 to 300 nM measured after 24 hrs by DAPI staining based fluorescence microscopic analysis. Format: toxicity, cell-based. The following applies: human, hek-293t, 0.3 µM, dose 100-300 nM.
Data set [8] deals with HEK-293T. In words: Up-regulation of leukocyte proliferation genes in HEK293T cells expressing ACE-2/TMPRSS2 infected with SARS-CoV-2 preincubated with compound for 2 hrs followed by viral infection and measured after 24 hrs by gene ontology analysis. The format is functional, cell-based. The following applies: Homo sapiens, time 26.0 hrs.
The test system of data set [9] is SARS-CoV-2. Kind of data set: Antiviral activity against wild-type SARS-CoV-2 USA-WA1/2020 NR-52281 infected in African green monkey Vero E6 cells expressing ACE-2/TMPRSS2 assessed as reduction in virus-induced cytopathic effect at 0.31 to 2.5 uM measured after 48 hrs by cellular ATP assay. Format: functional, organism-based. The conditions noted are these: Severe acute respiratory syndrome coronavirus 2, dose 0.31-2.5 µM.

For data set [10], the system named is SARS-CoV-2. Kind of data set: Antiviral activity against SARS-CoV-2 infected in HEK293T cells expressing ACE2/TMPRSS2 assessed as reduction in virus-induced cytopathic effect at 10 uM measured after 48 hrs by cellular ATP assay. Further details: scale not given: the % may be the effect or the level left. The format is functional, Severe acute respiratory syndrome coronavirus 2.

In data set [11] the test system is SARS-CoV-2. Kind of data set: Antiviral activity against SARS-CoV-2 infected in HEK293T cells expressing ACE2/TMPRSS2 assessed as reduction in virus-induced cytopathic effect at 2.5 uM measured after 48 hrs by cellular ATP assay. The format is functional, Severe acute respiratory syndrome coronavirus 2. Further details: scale not given: the % may be the effect or the level left.

Data set [12] relates to HEK-293T. In words: Cytotoxicity against HEK293T cells at 2.5 to 10 uM assessed as reduction in cell viability by CellTiter-Glo assay. The format is toxicity, cell-based. The following applies: human, dose 2.5-10 µM.
Data set [13] has as its system HEK-293T. Kind of data set: Cytotoxicity against HEK293T cells at 0.1 uM assessed as reduction in cell viability by CellTiter-Glo assay. The format is toxicity, cell-based. The following applies: human.
The subject of data set [14] is HEK-293T. In words: Cytotoxicity against HEK293T cells at 10 uM assessed as reduction in cell viability by CellTiter-Glo assay. The following applies: human. The format is toxicity, cell-based.
Data set [15] can be described thus: Permeability of the compound in pH 7.4 measured after 5 hrs by LC-MS based PAMPA assay. The following applies: pH 7.4, 5 h. The format is ADME. A general note: In PAMPA a lipid-coated filter parts donor from acceptor wells.
Data set [16] relates to HEK-293T. Kind of data set: Downregulation of viral nucleocapsid N gene expression in HEK293T cells expressing ACE-2/TMPRSS2 infected with SARS-CoV-2 assessed as fold change preincubated with compound for 2 hrs followed by viral infection and measured after 24 hrs relative to MPV. The conditions noted are these: Homo sapiens, time 26.0 hrs. Format: functional, cell-based.

The subject of data set [17] is SARS-CoV-2. Kind of data set: Antiviral activity against SARS-CoV-2 delta infected in African green monkey Vero E6 cells expressing ACE-2/TMPRSS2 assessed as reduction in virus-induced cytopathic effect at 0.31 to 2.5 uM measured after 48 hrs by cellular ATP assay. The format is functional, organism-based. The following applies: Severe acute respiratory syndrome coronavirus 2, dose 0.31-2.5 µM.

With `CN1[C@@H](CC(=O)c2ccccc2)CCC[C@H]1C[C@H](O)c1ccccc1`, in [1], the result was inactive.
For orientation: IC50 means the concentration that gives 50% inhibition. In general, CC50 refers to the concentration giving 50% cytotoxicity. For `COc1ccc2cc1Oc1ccc(cc1)C[C@H]1c3cc(c(OC)cc3CCN1C)Oc1c(O)c(OC)cc3c1[C@H](C2)N(C)CC3` [FANGCHINOLINE], the IC50 in [2] was determined as 193 nM. Also, the Activity entry in data set [3] was “Toxic”; in [5], “Non-Toxic”; in data set [7], “Non-Toxic”. Moreover, in data set [4], the CC50 is above 1000 nM. In addition, the result in data set [6] and in [8] was Active. In data set [9], the outcome was inactive.
In the case of `CN(C)C(=O)COC(=O)Cc1ccc(OC(=O)c2ccc(NC(=N)N)cc2)cc1` [CAMOSTAT], the Activity is listed as 54.5% in data set [10], 23% in data set [11] and “Non-Toxic” in data set [12].
On to `O=c1cc(-c2ccccc2)oc2cc(O)c(O)c(O)c12` [BAICALEIN], for which the IC50 in data set [2] worked out at 5100 nM.
In the case of `O=C(O)[C@H]1O[C@@H](Oc2cc3oc(-c4ccccc4)cc(=O)c3c(O)c2O)[C@H](O)[C@@H](O)[C@@H]1O`, the outcome in data set [1] was inactive.
For the molecule `CCC(CC)COC(=O)[C@H](C)N[P@](=O)(OC[C@H]1O[C@@](C#N)(c2ccc3c(N)ncnn23)[C@H](O)[C@@H]1O)Oc1ccccc1`, the figures for the Activity result in data set [13] and in [14] were “Non-Toxic” and “Toxic”, respectively.
Consider `COc1ccc2cc1Oc1ccc(cc1)C[C@H]1c3cc(c(OC)cc3CCN1C)Oc1c(OC)c(OC)cc3c1[C@H](C2)N(C)CC3` [FANCHININ], for which the IC50 in data set [2] came to 284 nM. Further, the Activity entry in [3] is reported as “Toxic”; in [5], “Non-Toxic”; in data set [7] it was “Non-Toxic”. The CC50 in [4] was above 1000 nM. Besides, in data set [15], the permeability result is listed as “Permeable”. The outcome in data set [6], in data set [16] and in [8] was Active. Also, the result in [9] was inactive.
`COc1ccc2cc1Oc1ccc(cc1)C[C@H]1c3c(cc4c(c3Oc3cc5c(cc3OC)CCN(C)[C@@H]5C2)OCO4)CCN1C` [CEPHARANTHINE]: the IC50 in [2] came to 143 nM. The result in data set [17] and in [6] was Active. The Activity entry in data set [3] is on record as “Toxic”; in [5], “Non-Toxic”; in data set [7] it was “Non-Toxic”. In [4], the CC50 was determined as 2100 nM. The permeability entry in data set [15] is listed as “Permeable”. The result in data set [9] was inactive.

For the origin of these results see ChEMBL document CHEMBL5257090, “Modulation of in Vitro SARS-CoV-2 Infection by Stephania tetrandra and Its Alkaloid Constituents” (J Nat Prod, 2023).
